Consider 5 compounds from ChEMBL document CHEMBL1201862, “PubChem BioAssay data set” (2004).

SMILES strings stand for the structures.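 All cell lines were grown in 96-well plates and treated with compound for 48 hours. At the GI50, growth is halved.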 Calls of active or inactive are those of the source. No stated cut-off is given here; in the data, active = GI50 up to about 1.1 µM and inactive = higher. *1 amine or outer side, *2 acyl side, *3 side chain or, on linkers, in order; H or OH if unused. Where a SMILES comes first, the peptide text is derived from it. [ ]: non-standard residue; d: D form. The star is where a group is joined. ξ: configuration not given here. NMeY = CN[C@@H](Cc1ccc(O)cc1)C(=O)O; Ethylenediamine = C(CN[*:2])N[*:1]; ξNMeL = CNC(CC(C)C)C(=O)O; Cbz = O=C(OCc1ccccc1)*; Lac = C[C@H](O)C(=O)O; ξA = CC(N)C(=O)O

Among the test systems are SK-MEL-2; NCI-H460; SF-268; HT-29; U-251; MDA-N; UACC-62; LOX IMVI; RXF 393; HCT-116; COLO 205; TK-10; PC-3; SK-OV-3; K562; A498; SW-620; OVCAR-8; MOLT-4; T47D.
Holding throughout (experiment): inhibition of tumour cell growth, NCI panel, 48 h

As for `C=C(CO)[C@H]1Oc2ccc(C(C)=O)cc2[C@@H]1O`, the GI50 is > 100 µM (inactive) in the assay on SK-MEL-2; > 100 µM (inactive) in the assay on NCI-H460; > 100 µM (inactive) with SF-268; > 100 µM (inactive) in the assay on HT-29; > 100 µM (inactive) with U-251; 22.2 µM (inactive) in the assay with MDA-N. Further, the GI50 in the assay on UACC-62, in the assay with LOX IMVI, in the assay on RXF 393, in the assay on HCT-116, in the assay with COLO 205 and with TK-10 was > 100 µM (inactive) each time. Further, the GI50 was > 100 µM (inactive) in the assay on PC-3; > 100 µM (inactive) with SK-OV-3; 67.9 µM (inactive) with K562; > 100 µM (inactive) in the assay on A498; > 100 µM (inactive) in the assay with SW-620; > 100 µM (inactive) with OVCAR-8. Also, the GI50 in the assay on MOLT-4 and in the assay on T47D was > 100 µM (inactive) in each case.
Regarding `COc1ccc(C[C@@H](C(=O)NCCNC(=O)C(CC(C)C)N(C)C(=O)[C@@H]2CCCN2C(=O)[C@H](C)O)N(C)C(=O)[C@@H]2CCCN2C(=O)[C@H](CC(C)C)NC(=O)C(C)NC(=O)OCc2ccccc2)cc1` (stereo not given in full) (Cbz-[ξA]LP[NMeY](Me)-{Ethylenediamine-ξNMeL-Pro-Lac}), the GI50 with SK-MEL-2 is > 100 µM (inactive); in the assay with NCI-H460 it was > 100 µM (inactive); in the assay with SF-268, > 100 µM (inactive); in the assay with HT-29, 72.3 µM (inactive); in the assay with U-251 it was > 100 µM (inactive); with MDA-N it was 66.8 µM (inactive). The GI50 was 96.2 µM (inactive) with UACC-62; 37 µM (inactive) with LOX IMVI; 97.7 µM (inactive) with RXF 393; > 100 µM (inactive) in the assay on HCT-116; 77.6 µM (inactive) in the assay with COLO 205; > 100 µM (inactive) in the assay on TK-10. In addition, the GI50 in the assay on PC-3 is > 100 µM (inactive); with SK-OV-3 it was > 100 µM (inactive); in the assay on K562 it was 40.6 µM (inactive); in the assay with A498, > 100 µM (inactive); in the assay on SW-620, > 100 µM (inactive); in the assay with OVCAR-8, > 100 µM (inactive). Further, the GI50 is 29 µM (inactive) with MOLT-4 and 72.6 µM (inactive) in the assay on T47D.
Take `COC(=O)CC1C2(C)C3=C(C)C(c4ccoc4)CC3OC2C2OC(=O)C3(C)C=CC(=O)C1(C)C23` (stereo not given): the GI50 in the assay on SK-MEL-2 was 1.64 µM (inactive); in the assay with NCI-H460, 1.15 µM (inactive); with SF-268, 2.07 µM (inactive); in the assay on HT-29, 0.839 µM (active); in the assay on U-251, 1.48 µM (inactive); with MDA-N it was 0.385 µM (active). For the same compound, the GI50 in the assay on UACC-62 is 1.46 µM (inactive); in the assay on LOX IMVI it was 0.986 µM (active); in the assay on RXF 393, 1.3 µM (inactive); in the assay with HCT-116, 0.889 µM (active); in the assay on COLO 205, 1.3 µM (inactive); with TK-10, 2.28 µM (inactive). In addition, the GI50 in the assay with PC-3 is 1.18 µM (inactive); in the assay on SK-OV-3 it was 4.11 µM (inactive); with K562, 0.474 µM (active); in the assay with A498 it was 1.94 µM (inactive); in the assay on SW-620 it was 1.33 µM (inactive); in the assay with OVCAR-8, 1.02 µM (active). For the same compound, the GI50 with MOLT-4 is 0.455 µM (active); in the assay on T47D, 1.38 µM (inactive).
For `CCCCC(=O)OCC(=O)[C@]1(O)Cc2c(O)c3c(c(O)c2[C@@H](OC2CC(NC(=O)C(F)(F)F)C(O)C(C)O2)C1)C(=O)c1c(OC)cccc1C3=O` (stereo not given in full), the GI50 was 0.962 µM (active) in the assay with SK-MEL-2; 0.0214 µM (active) with NCI-H460; 0.403 µM (active) with SF-268; 0.74 µM (active) with HT-29; 0.221 µM (active) in the assay on U-251; 1.15 µM (inactive) with MDA-N. Besides, the GI50 with UACC-62 is 0.184 µM (active); in the assay with LOX IMVI, 0.163 µM (active); in the assay on RXF 393 it was 0.82 µM (active); in the assay on HCT-116 it was 0.294 µM (active); in the assay on COLO 205, 1.11 µM (active); with TK-10, 2.47 µM (inactive). Moreover, the GI50 with PC-3 is 1.14 µM (inactive); in the assay with SK-OV-3 it was 0.345 µM (active); with K562, 0.337 µM (active); in the assay with A498 it was 0.247 µM (active); in the assay on SW-620, 0.261 µM (active); in the assay with OVCAR-8, 0.519 µM (active). For the same compound, the GI50 in the assay with MOLT-4 was 0.0228 µM (active); in the assay on T47D, 0.54 µM (active).
As for `COC(=O)CNC(=O)/C=C/[C@H](O[Si](C)(C)C(C)(C)C)[C@H](/C=C/C(=O)NCC(=O)OC)O[Si](C)(C)C(C)(C)C`, the GI50 in the assay with SK-MEL-2, in the assay with NCI-H460, in the assay on SF-268, in the assay on HT-29, with U-251 and in the assay on MDA-N was > 25 µM (inactive) each time. In addition, the GI50 with UACC-62, in the assay on LOX IMVI, in the assay on RXF 393, in the assay with HCT-116, in the assay with COLO 205 and in the assay with TK-10 was > 25 µM (inactive) each time. Moreover, the GI50 in the assay on PC-3, in the assay on SK-OV-3, in the assay with K562, in the assay on A498, in the assay on SW-620 and in the assay on OVCAR-8 was > 25 µM (inactive) throughout. Further, the GI50 with MOLT-4 and in the assay with T47D was > 25 µM (inactive) in each case.
